Results as given in US8617528B2, “Compositions and methods for stabilizing ingredients using 2,4-pentanedione compounds” (Sytheon Ltd., priority 2010, dated 2013).

How the values were obtained:
[1] = solar simulator, total energy 100 mJ/cm^2; cited from earlier work
[2] = cited from earlier work
[3] = Photostabilization of avobenzone in ethanol test solution under sun simulator
Experimental: A comparative photostabilization study was conducted comparing the photostabilization efficacy of the compound of Example 1, HSS, and the compound of Example 3 (Compound 3) with Octocrylene and Oxynex® ST in the stabilization of avobenzone. Samples for evaluation were prepared as follows:
Solutions in ethanol are prepared at respective concentrations of photosensitive materials and photostabilizer (typically 1:1 to 1:5 weight ratio). A base test solution of 3% Avobenzone+5% Octyl salicylate +10% Homoslate in Ethanol (the “Test Solution”) was made. Seven additional solutions were prepared by adding 2% Synoxyl™ HSS, 4% Synoxyl™ HSS, 4% Compound 3, 2% Octocrylene, 4% Octocrylene, 2% Oxynex® ST, and 2% dehydrozingerone methyl ether, respectively, to seven aliquots of the Test Solution.
(§1) Samples of each solution were prepared as ultrathin films between two quartz plates so as to obtain a minimum of 90% light transmission over the entire spectrum range of non absorbing chromophores. For example, ingredients which absorb only in the UV range were tested in formulation to obtain a minimum of 90% light transmission over the visible range. Each sample was then irradiated under sun simulator (754 W/m^2, 2 MED/h, UV dose from 20 to 100 Joules/cm^2) for various durations and light absorption spectra recorded for each sample at given times. The maximal absorption band λmax of each solution was determined before and after irradiation. The amount of the photosensitive materials remaining in solution after irradiation was calculated as the ratio of their two maximal absorptions.

[4] = Photostability of sunscreen formulation under sun simulator; conditions: 4% stabilizer in sunscreen with 2% butyl methoxydibenzoylmethane
Experimental: as §1
Three samples of this were taken for photostability testing according to the method of Example 6 above. The first sample, the Control, was not modified whereas the two remaining samples were modified by incorporating therein 2% of the compound of Example 1, HSS, and 4% octocrylene, respectively. The three formulations were prepared by first preparing each of Phase A1 and A2 and then dispersing Phase A2 in Phase A1 with agitation and heating to 75 C. Phase B was prepared and heated to 75° C. Phase B is then combined with the Phase A mixture with continuous stirring. The combination was subsequently homogenized for 2-3 minutes, and the batch cooled to 45° C. Phases C and were separately prepared and then mixed with the cooled batch until uniform.
As with Example 6, each was exposed to irradiation for various durations and the photostability tested. As evidenced from the results shown in Table 7, the stabilizer compound of the present invention performed markedly better than that of the conventional photostabilizer in the formulated product.

[5] = 2% stabilizer in Test Solution (3% Avobenzone), UV dose 0 Joules/cm^2
[6] = 2% stabilizer in Test Solution (3% Avobenzone), UV dose 20 Joules/cm^2
[7] = 2% stabilizer in Test Solution (3% Avobenzone), UV dose 40 Joules/cm^2
[8] = 4% stabilizer in Test Solution (3% Avobenzone), UV dose 0 Joules/cm^2
[9] = 4% stabilizer in Test Solution (3% Avobenzone), UV dose 20 Joules/cm^2
[10] = 4% stabilizer in Test Solution (3% Avobenzone), UV dose 40 Joules/cm^2
[11] = 4% stabilizer in Test Solution (3% Avobenzone), UV dose 60 Joules/cm^2
[12] = 4% stabilizer in Test Solution (3% Avobenzone), UV dose 80 Joules/cm^2
[13] = 4% stabilizer in Test Solution (3% Avobenzone), UV dose 100 Joules/cm^2

SMILES	solubility in diethylhexyl diester of 2,6-naphthalene-dicarboxylic acid [2]	% remaining [3, 5] [%]	% remaining [3, 6] [%]	% remaining [3, 7] [%]	% remaining [3, 8] [%]	% remaining [3, 9] [%]	% remaining [3, 10] [%]	% remaining [3, 11] [%]	% remaining [3, 12] [%]	% remaining [3, 13] [%]	further results
Cc1ccc(C(C)C)cc2c(C)ccc1-2 [Guaiazulene]											lost due to degradation [1]: ~90%
CC1=C(/C=C/C(C)=C/C=C/C(C)=C\C(=O)O)C(C)(C)CCC1 [isotretinoin, 13-cis-retinoic acid]	approximately 6.7 mg/ml										
COc1ccc(/C=C/C(C)=O)cc1OC [Dehydrozingerone methyl ether, Dehydrozingerone methylether]		100	59	26							stabilization of photosensitive compounds ([3]; summary statement): fails to stabilize photosensitive compounds
CCCCC(CC)COC(=O)C(C#N)=C(c1ccccc1)c1ccccc1 (stereo not shown) [Octocrylene]		100	92	80	100	94	83	73	67	60	% remaining ([3]; 2% stabilizer in Test Solution (3% Avobenzone), UV dose 60 Joules/cm^2): 68%; % remaining ([3]; 2% stabilizer in Test Solution (3% Avobenzone), UV dose 80 Joules/cm^2): 64%; % remaining ([3]; 2% stabilizer in Test Solution (3% Avobenzone), UV dose 100 Joules/cm^2): 58%; photostability of sunscreen formulation (% remaining) ([4]; UV dose 0 Joules/cm^2): 100%; photostability of sunscreen formulation (% remaining) ([4]; UV dose 20 Joules/cm^2): 94%; photostability of sunscreen formulation (% remaining) ([4]; UV dose 40 Joules/cm^2): 89%; photostability of sunscreen formulation (% remaining) ([4]; UV dose 60 Joules/cm^2): 82%
COc1ccc(C=C(C(C)=O)C(C)=O)cc1 [Compound 3, 3-(4-methoxybenzylidene)-2,4-pentanedione]					100	96	90	80	73	68	melting point: 82 to 84 °C
CC1=C(/C=C/C(C)=C/C=C/C(C)=C/C(=O)O)C(C)(C)CCC1 [tretinoin, all-trans-retinoic acid]	approximately 5.6 mg/ml										solubility in water ([2]; water): practically insoluble
